In patent publication US10787447B2, “Pharmaceutical compounds” (Heptares Therapeutics Limited, priority 2018, dated 2020):
Like-named read-outs stand apart in the source and are kept apart here.

Legend:
Format in all cases: cell-based
[1] = molecular target: T1, human muscarinic M1 receptor (Homo sapiens, UniProt P11229); assay: Alphascreen Surefire phospho-ERK1/2 functional assay, M1; conditions: for % Emax cf. ACh, M1: Emax relative to ACh; for EC50: phospho-ERK1/2
T1 sequence (P11229 1-460): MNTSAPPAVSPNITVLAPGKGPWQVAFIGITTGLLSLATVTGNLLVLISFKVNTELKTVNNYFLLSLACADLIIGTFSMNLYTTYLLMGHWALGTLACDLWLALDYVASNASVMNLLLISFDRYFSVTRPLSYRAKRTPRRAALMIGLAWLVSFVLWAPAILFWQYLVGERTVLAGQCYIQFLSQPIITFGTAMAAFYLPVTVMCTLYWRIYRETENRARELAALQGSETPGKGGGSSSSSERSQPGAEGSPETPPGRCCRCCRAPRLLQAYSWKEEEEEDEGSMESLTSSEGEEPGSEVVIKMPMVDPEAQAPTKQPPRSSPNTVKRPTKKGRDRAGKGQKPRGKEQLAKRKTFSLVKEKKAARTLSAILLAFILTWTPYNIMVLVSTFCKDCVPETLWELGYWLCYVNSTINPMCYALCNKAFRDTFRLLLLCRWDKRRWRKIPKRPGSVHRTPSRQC
Method: (§1) Functional assays were performed using the Alphascreen Surefire phospho-ERK1/2 assay (Crouch & Osmond, Comb. Chem. High Throughput Screen, 2008). ERK1/2 phosphorylation is a downstream consequence of both Gq/11 and Gi/o protein coupled receptor activation, making it highly suitable for the assessment of M1, M3 (Gq/11 coupled) and M2, M4 receptors (Gi/o coupled), rather than using different assay formats for different receptor subtypes. CHO cells stably expressing the human muscarinic M1, M2, M3 or M4 receptor were plated (25K/well) onto 96-well tissue culture plates in MEM-alpha+10% dialysed FBS. Once adhered, cells were serum-starved overnight. Agonist stimulation was performed by the addition of 5 μL agonist to the cells for 5 min (37° C.). Media was removed and 50 μL of lysis buffer added. After 15 min, a 4 μL sample was transferred to 384-well plate and 7 μL of detection mixture added.
For the vast majority of examples at least two diastereomers exist and these have been separated, unless otherwise stated, using the techniques of reversed phase HPLC, chiral HPLC or chiral SFC. Isomer assignment (Isomer 1, Isomer 2, etc.) is based on the retention time of the compound using the separation technique that was performed in the final purification step. By implication, this could be reversed phase HPLC, chiral HPLC or chiral SFC retention time, and this will vary from compound to compound.

[2] = molecular target: T2, human muscarinic M2 receptor (Homo sapiens, UniProt P08172); assay: Alphascreen Surefire phospho-ERK1/2 functional assay, M2; conditions: for % Emax cf. ACh, M2: CHO cells stably expressing human M2; for EC50: pEC50 M2, CHO cells stably expressing human M2, phospho-ERK1/2
T2 sequence (P08172 1-466): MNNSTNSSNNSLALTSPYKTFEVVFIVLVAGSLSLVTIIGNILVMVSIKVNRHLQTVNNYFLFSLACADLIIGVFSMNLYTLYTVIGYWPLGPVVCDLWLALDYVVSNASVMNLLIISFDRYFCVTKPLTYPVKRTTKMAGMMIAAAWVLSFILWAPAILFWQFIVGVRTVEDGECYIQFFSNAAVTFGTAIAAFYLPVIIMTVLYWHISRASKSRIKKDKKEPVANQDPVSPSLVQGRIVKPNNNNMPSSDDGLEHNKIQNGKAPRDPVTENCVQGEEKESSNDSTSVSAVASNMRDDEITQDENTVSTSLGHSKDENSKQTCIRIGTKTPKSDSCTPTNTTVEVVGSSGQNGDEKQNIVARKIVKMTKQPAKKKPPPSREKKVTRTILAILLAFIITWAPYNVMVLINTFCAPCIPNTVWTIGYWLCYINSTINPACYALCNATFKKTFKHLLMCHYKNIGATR
Method: as §1, with “ERK1/2” for “Functional assays were performed using the Alphascreen Surefire phospho-ERK1/2 assay (Crouch & Osmond, Comb. Chem. High Throughput Screen, 2008). ERK1/2”
(§2) Isomer assignment (Isomer 1, Isomer 2, etc.) is based on the retention time of the compound using the separation technique that was performed in the final purification step. By implication, this could be reversed phase HPLC, chiral HPLC or chiral SFC retention time, and this will vary from compound to compound.

[3] = molecular target: T3, human muscarinic M3 receptor (Homo sapiens, UniProt P20309); assay: Alphascreen Surefire phospho-ERK1/2 functional assay, M3; conditions: for % Emax cf. ACh, M3: CHO cells stably expressing human M3; for EC50: pEC50 M3, CHO cells stably expressing human M3, phospho-ERK1/2
T3 construct: expressed in transfected cells
T3 sequence (P20309 whole entry): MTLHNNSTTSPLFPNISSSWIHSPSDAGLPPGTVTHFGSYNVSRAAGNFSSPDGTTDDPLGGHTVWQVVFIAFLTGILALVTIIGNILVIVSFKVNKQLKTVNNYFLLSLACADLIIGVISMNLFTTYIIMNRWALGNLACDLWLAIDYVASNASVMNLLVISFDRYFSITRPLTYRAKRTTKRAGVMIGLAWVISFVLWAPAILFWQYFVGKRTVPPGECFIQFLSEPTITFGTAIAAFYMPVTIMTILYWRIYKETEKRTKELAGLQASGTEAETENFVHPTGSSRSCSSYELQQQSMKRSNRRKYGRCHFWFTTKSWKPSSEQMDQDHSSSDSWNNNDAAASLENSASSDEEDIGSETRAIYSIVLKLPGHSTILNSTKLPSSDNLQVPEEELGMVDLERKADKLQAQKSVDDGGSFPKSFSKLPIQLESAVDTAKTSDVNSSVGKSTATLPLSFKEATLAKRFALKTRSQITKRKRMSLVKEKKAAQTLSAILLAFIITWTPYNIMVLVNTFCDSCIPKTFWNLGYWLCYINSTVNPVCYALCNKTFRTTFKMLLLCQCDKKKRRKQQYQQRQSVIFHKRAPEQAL
Method: as §1, with “ERK1/2” for “Functional assays were performed using the Alphascreen Surefire phospho-ERK1/2 assay (Crouch & Osmond, Comb. Chem. High Throughput Screen, 2008). ERK1/2”
as §2

[4] = molecular target: T4, human muscarinic M4 receptor (Homo sapiens, UniProt P08173); assay: Alphascreen Surefire phospho-ERK1/2 functional assay, M4; conditions: for % Emax cf. ACh, M4: CHO cells stably expressing human M4; for EC50: pEC50 M4, CHO cells stably expressing human M4, phospho-ERK1/2
T4 sequence (P08173 1-479): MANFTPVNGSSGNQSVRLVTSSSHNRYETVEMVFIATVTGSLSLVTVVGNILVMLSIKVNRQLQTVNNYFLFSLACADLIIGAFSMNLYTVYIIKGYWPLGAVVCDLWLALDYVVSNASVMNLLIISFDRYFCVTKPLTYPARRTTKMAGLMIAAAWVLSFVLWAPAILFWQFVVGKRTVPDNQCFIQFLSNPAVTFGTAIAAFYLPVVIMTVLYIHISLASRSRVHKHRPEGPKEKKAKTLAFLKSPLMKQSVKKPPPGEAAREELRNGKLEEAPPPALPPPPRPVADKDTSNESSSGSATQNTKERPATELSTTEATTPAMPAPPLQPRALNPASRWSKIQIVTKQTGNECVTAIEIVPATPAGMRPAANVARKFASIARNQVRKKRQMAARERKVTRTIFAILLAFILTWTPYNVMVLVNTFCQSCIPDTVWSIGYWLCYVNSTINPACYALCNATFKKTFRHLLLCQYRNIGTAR
Method: as §1, with “ERK1/2” for “Functional assays were performed using the Alphascreen Surefire phospho-ERK1/2 assay (Crouch & Osmond, Comb. Chem. High Throughput Screen, 2008). ERK1/2”
as §2

[5] = pEC50 M1, CHO cells stably expressing human M1
[6] = Emax relative to ACh, listed as 1-2 Isomer 1
[7] = Emax relative to ACh, listed as 6-7 Isomer 1
[8] = Emax relative to ACh, listed as 6-4 Isomer 1
[9] = Emax relative to ACh, listed as 2-3 Isomer 2

SMILES | EC50 [1, 5] | EC50 [2] | % Emax cf. ACh, M3 ([3]; Emax relative to ACh) | EC50 [4] | % Emax cf. ACh, M4 ([4]; Emax relative to ACh) | further results
CCOC(=O)N1C2COCC1CC(N1CCC(n3cc(Cl)cn3)CC1)C2 (single isomer, unassigned) [Example 1-2 Isomer 1, Ethyl 7-[4-(4-chloro-1H-pyrazol-1-yl)piperidin-1-yl]-3-oxa-9-azabicyclo[3.3.1]nonane-9-carboxylate] | 15.1 nM | 87.1 nM | 2% | 2.88 nM | – | % Emax cf. ACh, M1 ([1]; CHO cells stably expressing human M1, listed as 1-2 Isomer 1): 96%; % Emax cf. ACh, M2 [2, 6]: 69%; % Emax cf. ACh, M4 [4, 6]: 78%
CCOC(=O)N1C2COCC1CC(N1CCC(N3CCCCCC3=O)CC1)C2 (single isomer, unassigned) [Example 6-7 Isomer 1, Ethyl 7-[4-(2-oxoazepan-1-yl)piperidin-1-yl]-3-oxa-9-azabicyclo[3.3.1]nonane-9-carboxylate] | 646 nM | 1020 nM | – | 75.9 nM | – | % Emax cf. ACh, M1 ([1]; CHO cells stably expressing human M1, listed as 6-7 Isomer 1): 111%; % Emax cf. ACh, M2 [2, 7]: 87%; % Emax cf. ACh, M3 [3, 7]: 28%; EC50 [3]: > 20 µM; % Emax cf. ACh, M4 [4, 7]: 105%
CC(=O)OCC[N+](C)(C)C [ACh] | – | – | 115% | – | 110% | –
CCOC(=O)N1C2COCC1CC(N1CCC(c3cccnc3OC)CC1)C2 (single isomer, unassigned) [Example 2-2 Isomer 1, Ethyl 7-[4-(2-methoxypyridin-3-yl)piperidin-1-yl]-3-oxa-9-azabicyclo[3.3.1]nonane-9-carboxylate] | > 20000 nM | > 20000 nM | – | 36.3 nM | – | % Emax cf. ACh, M1 ([1]; CHO cells stably expressing human M1, listed as 2-2 Isomer 1): 63%; Emax ([2]; CHO, read-out: % Emax cf. ACh, M2, CHO cells stably expressing human M2, Emax relative to ACh): 3%; Emax ([3]; CHO, read-out: % Emax cf. ACh, M3, CHO cells stably expressing human M3, Emax relative to ACh): 4%; EC50 [3]: > 20 µM; % Emax cf. ACh, M4 ([4]; Emax relative to ACh, listed as 2-2 Isomer 1): 61%
CCOC(=O)N1C2COCC1CC(N1CCC(N(CC3(C)CCC3)C(C)=O)CC1)C2 (single isomer, unassigned) [Example 6-4 Isomer 1] | 14.5 nM | 363 nM | – | 42.7 nM | – | % Emax cf. ACh, M1 ([1]; CHO cells stably expressing human M1, listed as 6-4 Isomer 1): 103%; % Emax cf. ACh, M2 [2, 8]: 33%; % Emax cf. ACh, M4 [4, 8]: 80%
CCOC(=O)N1C2COCC1CC(N1CCC(c3ccc[nH]c3=O)CC1)C2 (single isomer, unassigned) [Example 2-3 Isomer 2, Ethyl 7-[4-(2-oxo-1,2-dihydropyridin-3-yl)piperidin-1-yl]-3-oxa-9-azabicyclo[3.3.1]nonane-9-carboxylate] | 174 nM | > 20000 nM | 5% | 11.5 nM | – | % Emax cf. ACh, M1 ([1]; CHO cells stably expressing human M1, listed as 2-3 Isomer 2): 34%; % Emax cf. ACh, M2 [2, 9]: 10%; % Emax cf. ACh, M4 [4, 9]: 65%
CCOC(=O)N1C2COCC1CC(N1CCC3(CC1)C(=O)Nc1ccccc13)C2 (single isomer, unassigned) [Example 5-5 Isomer 2, Ethyl 7-(2-oxo-1,2-dihydro-1′H-spiro[indole-3,4′-piperidin]-1′yl)-3-oxa-9-azabicyclo[3.3.1]nonane-9-carboxylate] | 53.7 nM | 75.9 nM | – | 8.51 nM | 108% | % Emax cf. ACh, M1 ([1]; CHO cells stably expressing human M1, listed as 5-5 Isomer 2): 108%; % Emax cf. ACh, M2 ([2]; Emax relative to ACh, listed as 5-5 Isomer 2): 67%
COC(=O)N1C2COCC1CC(N1CCC(N(CC3(C)CCC3)C(C)=O)CC1)C2 (single isomer, unassigned) [Example 8-1 Isomer 2, Methyl 7-(4-(N-((1-methylcyclobutyl)methyl)acetamido)piperidin-1-yl)-3-oxa-9-azabicyclo[3.3.1]nonane-9-carboxylate] | 234 nM | – | – | 575 nM | – | % Emax cf. ACh, M1 ([1]; CHO cells stably expressing human M1, listed as 8-1 Isomer 2): 86%; % Emax cf. ACh, M4 ([4]; Emax relative to ACh, listed as 8-1 Isomer 2): 47%
CCOC(=O)N1C2COCC1CC(N1CCC3(CC1)CNC(=O)C3)C2 (single isomer, unassigned) [Example 5-2 Isomer 1, Ethyl 7-(3-oxo-2,8-diazaspiro[4.5]dec-8-yl)-3-oxa-9-azabicyclo[3.3.1]nonane-9-carboxylate] | 316 nM | – | – | 302 nM | – | % Emax cf. ACh, M1 ([1]; CHO cells stably expressing human M1, listed as 5-2 Isomer 1): 82%; Emax ([4]; CHO, read-out: % Emax cf. ACh, M4, CHO cells stably expressing human M4, Emax relative to ACh): 36%
CCOC(=O)N1C2COCC1CC(N1CCC(c3cccc(OC)n3)CC1)C2 (single isomer, unassigned) [Example 2-1 Isomer 2, Ethyl 7-[4-(6-methoxypyridin-2-yl)piperidin-1-yl]-3-oxa-9-azabicyclo[3.3.1]nonane-9-carboxylate] | – | – | – | – | 20% | % Emax cf. ACh, M1 ([1]; CHO cells stably expressing human M1): 40%; EC50 ([1]; CHO cells stably expressing human M1, read-out: pEC50 M1 (converted)): 158 nM
